pIC50: −log10 of the molar value.
Each compound was assayed against SUMO-activating enzyme (Homo sapiens, UniProt Q9UBT2) (assay: Inhibition of SAE (unknown origin) using recombinant His-tagged human SUMO1 measured after 2 hrs by HTRF assay). Conditions: not given.
Type: protein-complex assay

SUMO-activating enzyme, sequence (Q9UBE0 whole entry): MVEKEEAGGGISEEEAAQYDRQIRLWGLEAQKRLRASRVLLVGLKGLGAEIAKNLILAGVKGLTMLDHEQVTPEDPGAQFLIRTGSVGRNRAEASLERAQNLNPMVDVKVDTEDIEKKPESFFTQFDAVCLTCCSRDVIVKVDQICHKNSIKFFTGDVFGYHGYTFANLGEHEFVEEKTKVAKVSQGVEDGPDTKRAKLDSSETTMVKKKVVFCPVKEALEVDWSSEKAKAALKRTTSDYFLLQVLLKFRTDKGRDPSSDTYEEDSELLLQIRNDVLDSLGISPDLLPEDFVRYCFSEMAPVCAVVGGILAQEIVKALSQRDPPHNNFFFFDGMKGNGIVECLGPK
SUMO-activating enzyme, sequence (Q9UBT2 whole entry): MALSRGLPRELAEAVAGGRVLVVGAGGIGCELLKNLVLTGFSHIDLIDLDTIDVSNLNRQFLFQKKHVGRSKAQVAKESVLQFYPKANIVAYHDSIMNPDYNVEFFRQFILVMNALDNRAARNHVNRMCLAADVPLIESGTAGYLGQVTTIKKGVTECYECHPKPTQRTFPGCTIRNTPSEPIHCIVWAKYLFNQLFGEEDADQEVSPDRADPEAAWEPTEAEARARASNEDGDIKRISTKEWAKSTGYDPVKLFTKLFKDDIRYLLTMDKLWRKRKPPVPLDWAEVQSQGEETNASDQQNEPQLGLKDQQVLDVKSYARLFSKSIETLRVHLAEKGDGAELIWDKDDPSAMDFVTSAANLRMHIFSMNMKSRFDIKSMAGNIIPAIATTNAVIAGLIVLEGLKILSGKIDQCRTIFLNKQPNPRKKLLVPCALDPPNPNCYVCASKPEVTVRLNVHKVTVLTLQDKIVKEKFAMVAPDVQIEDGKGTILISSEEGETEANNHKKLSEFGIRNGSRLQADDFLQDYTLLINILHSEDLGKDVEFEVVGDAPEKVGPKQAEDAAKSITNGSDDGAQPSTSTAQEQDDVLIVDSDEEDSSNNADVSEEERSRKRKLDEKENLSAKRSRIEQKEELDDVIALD

SMILES | pIC50
NS(=O)(=O)OC[C@H]1C[C@@H](Nc2ncncc2C(=O)c2cn(Cc3cccc(N4CCOCC4)c3)c3ccc(F)cc23)[C@H](O)[C@@H]1O | < 5.00
NS(=O)(=O)OC[C@H]1C[C@@H](Nc2ncncc2C(=O)c2cn(Cc3ccc(F)cc3F)c3ccccc23)[C@H](O)[C@@H]1O | 7.52
NS(=O)(=O)OC[C@H]1C[C@@H](Nc2ncncc2C(=O)c2cn(Cc3ccccc3F)c3ccccc23)[C@H](O)[C@@H]1O | 5.54
NS(=O)(=O)OC[C@H]1C[C@@H](Nc2ncncc2C(=O)c2cn(Cc3ccc(F)c(Cl)c3)c3ccccc23)[C@H](O)[C@@H]1O | 5.80
NS(=O)(=O)OC[C@H]1C[C@@H](Nc2ncncc2C(=O)c2cn(Cc3cccc(Br)c3)c3ncccc23)[C@H](O)[C@@H]1O | 6.18
NS(=O)(=O)OC[C@H]1C[C@@H](Nc2ncncc2C(=O)c2cn(Cc3ccccc3)c3ccccc23)C[C@@H]1O | 6.25
NS(=O)(=O)OC[C@H]1C[C@@H](Nc2ncncc2C(=O)c2cn(Cc3ccc(C(F)(F)F)o3)c3ccccc23)[C@H](O)[C@@H]1O | 5.89
NS(=O)(=O)OC[C@H]1C[C@@H](Nc2ncncc2C(=O)c2cn(Cc3cccc(C(F)(F)F)c3)c3ccccc23)[C@H](O)[C@@H]1O | 5.50
Cc1cccc(Cn2cc(C(=O)c3cncnc3N[C@@H]3C[C@H](COS(N)(=O)=O)[C@@H](O)[C@H]3O)c3ccccc32)n1 | 5.66
NS(=O)(=O)OC[C@H]1C[C@@H](Nc2ncncc2C(=O)c2cn(Cc3ccccc3)c3ccccc23)[C@@H](F)[C@@H]1O | 5.74
NS(=O)(=O)OC[C@H]1C[C@@H](Nc2ncncc2C(=O)c2nn(Cc3cccc(Br)c3)c3ccccc23)[C@H](O)[C@@H]1O | 5.77
Cc1c(Cn2cc(C(=O)c3cncnc3N[C@@H]3C[C@H](COS(N)(=O)=O)[C@@H](O)[C@H]3O)c3cc(F)ccc32)cccc1C(F)(F)F | 6.00
NS(=O)(=O)OC[C@H]1C[C@@H](Nc2ncncc2C(=O)c2cn(Cc3cccc(F)c3)c3ccccc23)[C@H](O)[C@@H]1O | 5.78
NS(=O)(=O)OC[C@H]1C[C@@H](Nc2ncncc2C(=O)c2cn(CC3CCCCC3)c3ccccc23)[C@H](O)[C@@H]1O | 5.78

The compounds below were run against T1, NEDD8 activating enzyme (Homo sapiens, UniProt Q8TBC4) (assay: Inhibition of NAE (unknown origin) using GST-tagged Ubc12 and Flag-tagged Nedd8 measured after 2 hrs by TR-FRET assay). Conditions: not given.
T1 sequence (Q8TBC4 whole entry): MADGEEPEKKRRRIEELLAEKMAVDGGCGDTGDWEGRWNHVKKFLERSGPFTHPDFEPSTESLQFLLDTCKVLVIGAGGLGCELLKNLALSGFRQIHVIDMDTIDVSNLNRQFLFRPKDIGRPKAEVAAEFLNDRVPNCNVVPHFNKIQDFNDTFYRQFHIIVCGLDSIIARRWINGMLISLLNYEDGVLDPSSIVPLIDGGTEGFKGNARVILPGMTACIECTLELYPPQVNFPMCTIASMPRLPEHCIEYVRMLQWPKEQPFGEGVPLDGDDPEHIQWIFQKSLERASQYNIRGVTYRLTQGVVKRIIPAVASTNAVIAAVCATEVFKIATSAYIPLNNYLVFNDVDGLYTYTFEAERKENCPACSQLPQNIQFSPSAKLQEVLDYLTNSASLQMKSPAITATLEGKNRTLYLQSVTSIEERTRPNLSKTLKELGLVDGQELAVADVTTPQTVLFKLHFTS
T1 sequence (Q13564 whole entry): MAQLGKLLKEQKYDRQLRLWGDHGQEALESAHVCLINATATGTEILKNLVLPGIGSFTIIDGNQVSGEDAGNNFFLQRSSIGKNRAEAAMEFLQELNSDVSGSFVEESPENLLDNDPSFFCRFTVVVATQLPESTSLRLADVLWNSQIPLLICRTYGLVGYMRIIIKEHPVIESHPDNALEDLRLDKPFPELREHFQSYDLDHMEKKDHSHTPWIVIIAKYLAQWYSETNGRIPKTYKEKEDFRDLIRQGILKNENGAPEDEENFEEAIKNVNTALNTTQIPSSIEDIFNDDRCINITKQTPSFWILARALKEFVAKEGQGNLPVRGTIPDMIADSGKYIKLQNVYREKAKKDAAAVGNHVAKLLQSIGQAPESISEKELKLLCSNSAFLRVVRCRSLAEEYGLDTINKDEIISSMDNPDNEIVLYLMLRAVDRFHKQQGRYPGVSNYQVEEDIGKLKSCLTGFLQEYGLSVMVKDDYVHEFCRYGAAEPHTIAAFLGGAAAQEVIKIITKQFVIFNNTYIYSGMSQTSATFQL
Type: protein-complex assay

SMILES | pIC50
NS(=O)(=O)OC[C@H]1C[C@@H](Nc2ncncc2C(=O)c2cn(Cc3cccc(N4CCOCC4)c3)c3ccc(F)cc23)[C@H](O)[C@@H]1O | 7.89
NS(=O)(=O)OC[C@H]1C[C@@H](Nc2ncncc2C(=O)c2cn(Cc3ccc(F)cc3F)c3ccccc23)[C@H](O)[C@@H]1O | 8.10
NS(=O)(=O)OC[C@H]1C[C@@H](Nc2ncncc2C(=O)c2cn(Cc3ccccc3)c3ccccc23)C[C@@H]1O | 9.22
NS(=O)(=O)OC[C@H]1C[C@@H](Nc2ncncc2C(=O)c2cn(Cc3cccc(C(F)(F)F)c3)c3ccccc23)[C@H](O)[C@@H]1O | 7.92
Cc1c(Cn2cc(C(=O)c3cncnc3N[C@@H]3C[C@H](COS(N)(=O)=O)[C@@H](O)[C@H]3O)c3cc(F)ccc32)cccc1C(F)(F)F | 6.95
NS(=O)(=O)OC[C@H]1C[C@@H](Nc2ncncc2C(=O)c2cn(Cc3cccc(F)c3)c3ccccc23)[C@H](O)[C@@H]1O | 7.04

The compounds below were run on HCT-116 (assay: Antiproliferative activity against human HCT116 cells after 48 hrs by CCK8 assay). Conditions: HCT-116, 48 h, read-out: LD50 (the source's name).
Type: functional

SMILES | CC50 [nM]
NS(=O)(=O)OC[C@H]1C[C@@H](Nc2ncncc2C(=O)c2cn(Cc3ccc(F)cc3F)c3ccccc23)[C@H](O)[C@@H]1O | 1480
NS(=O)(=O)OC[C@H]1C[C@@H](Nc2ncncc2C(=O)c2cn(Cc3ccccc3F)c3ccccc23)[C@H](O)[C@@H]1O | 3120
NS(=O)(=O)OC[C@H]1C[C@@H](Nc2ncncc2C(=O)c2cn(Cc3ccc(F)c(Cl)c3)c3ccccc23)[C@H](O)[C@@H]1O | 1800
NS(=O)(=O)OC[C@H]1C[C@@H](Nc2ncncc2C(=O)c2cn(Cc3cccc(Br)c3)c3ncccc23)[C@H](O)[C@@H]1O | 2010
NS(=O)(=O)OC[C@H]1C[C@@H](Nc2ncncc2C(=O)c2cn(Cc3ccc(C(F)(F)F)o3)c3ccccc23)[C@H](O)[C@@H]1O | 2010
NS(=O)(=O)OC[C@H]1C[C@@H](Nc2ncncc2C(=O)c2cn(Cc3cccc(C(F)(F)F)c3)c3ccccc23)[C@H](O)[C@@H]1O | 1240
Cc1cccc(Cn2cc(C(=O)c3cncnc3N[C@@H]3C[C@H](COS(N)(=O)=O)[C@@H](O)[C@H]3O)c3ccccc32)n1 | 413
NS(=O)(=O)OC[C@H]1C[C@@H](Nc2ncncc2C(=O)c2cn(Cc3cccc(F)c3)c3ccccc23)[C@H](O)[C@@H]1O | 456

What follows are compounds tested on THP-1 (assay: Antiproliferative activity against human THP1 cells after 48 hrs by CCK8 assay). Conditions: THP-1, 48 h, read-out: LD50 (the source's name).
Type: functional

SMILES | CC50 [nM]
NS(=O)(=O)OC[C@H]1C[C@@H](Nc2ncncc2C(=O)c2cn(Cc3ccc(F)cc3F)c3ccccc23)[C@H](O)[C@@H]1O | 1560
NS(=O)(=O)OC[C@H]1C[C@@H](Nc2ncncc2C(=O)c2cn(Cc3ccccc3F)c3ccccc23)[C@H](O)[C@@H]1O | 1000
NS(=O)(=O)OC[C@H]1C[C@@H](Nc2ncncc2C(=O)c2cn(Cc3ccc(F)c(Cl)c3)c3ccccc23)[C@H](O)[C@@H]1O | 1430
NS(=O)(=O)OC[C@H]1C[C@@H](Nc2ncncc2C(=O)c2cn(Cc3cccc(Br)c3)c3ncccc23)[C@H](O)[C@@H]1O | 813
NS(=O)(=O)OC[C@H]1C[C@@H](Nc2ncncc2C(=O)c2cn(Cc3ccc(C(F)(F)F)o3)c3ccccc23)[C@H](O)[C@@H]1O | 813
NS(=O)(=O)OC[C@H]1C[C@@H](Nc2ncncc2C(=O)c2cn(Cc3cccc(C(F)(F)F)c3)c3ccccc23)[C@H](O)[C@@H]1O | 1280
Cc1cccc(Cn2cc(C(=O)c3cncnc3N[C@@H]3C[C@H](COS(N)(=O)=O)[C@@H](O)[C@H]3O)c3ccccc32)n1 | 55.3
NS(=O)(=O)OC[C@H]1C[C@@H](Nc2ncncc2C(=O)c2cn(Cc3cccc(F)c3)c3ccccc23)[C@H](O)[C@@H]1O | < 30
